Experimental data reported in PMC6049504 (RNA, 2018).

What was measured:
Assay in all cases: biochemical
TkTrm10 [1] = molecular target: TkTrm10 (Thermococcus kodakarensis, UniProt Q5JD38, D206A/D245A)
TkTrm10 [2] = molecular target: TkTrm10 (Thermococcus kodakarensis, UniProt Q5JD38, D206L)
TkTrm10 [3] = molecular target: TkTrm10 (Thermococcus kodakarensis, UniProt Q5JD38)
TkTrm10 [4] = molecular target: TkTrm10 (Thermococcus kodakarensis, UniProt Q5JD38, D206N/D245N)
TkTrm10 (Thermococcus kodakarensis, UniProt Q5JD38, D206N/D245N), sequence (Q5JD38 whole entry D206N/D245N): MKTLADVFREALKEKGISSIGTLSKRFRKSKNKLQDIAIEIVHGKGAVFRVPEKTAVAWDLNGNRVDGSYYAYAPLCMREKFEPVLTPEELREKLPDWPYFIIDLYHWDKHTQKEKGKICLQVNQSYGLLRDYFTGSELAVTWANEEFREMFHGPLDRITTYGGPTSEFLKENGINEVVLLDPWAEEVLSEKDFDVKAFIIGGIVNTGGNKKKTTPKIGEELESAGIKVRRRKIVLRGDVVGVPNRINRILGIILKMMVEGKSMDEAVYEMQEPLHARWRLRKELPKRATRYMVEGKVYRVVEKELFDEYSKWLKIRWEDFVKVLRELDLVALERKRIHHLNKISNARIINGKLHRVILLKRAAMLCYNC

TkTrm10 (Thermococcus kodakarensis, UniProt Q5JD38), sequence (Q5JD38 whole entry): as the sequence (Q5JD38 whole entry D206N/D245N) above, with N206D, N245D counted along it
TkTrm10 (Thermococcus kodakarensis, UniProt Q5JD38, D206L), sequence (Q5JD38 whole entry D206L): as the sequence (Q5JD38 whole entry D206N/D245N) above, with N206L, N245D counted along it
TkTrm10 (Thermococcus kodakarensis, UniProt Q5JD38, D206A/D245A), sequence (Q5JD38 whole entry D206A/D245A): as the sequence (Q5JD38 whole entry D206N/D245N) above, with N206A, N245A counted along it

Kd (TkTrm10 [1]): 20.4 ± 2.9 µM | Kd (TkTrm10 [2]): 68 ± 19 µM | Kd (TkTrm10 [3]): 9.4 ± 1.2 µM | Kd (TkTrm10 [4]): 19.3 ± 3.4 µM
Structure (SMILES): C[S+](CC[C@H](N)C(=O)O)C[C@H]1O[C@@H](n2cnc3c(N)ncnc32)[C@H](O)[C@@H]1O (stereo partly shown) [SAM]
